In the NIST ThermoML archive (doi:10.1021/je100909b):

Test: mn = molality of the nth substance listed, in mol/kg
Conditions: 101 kPa, Liquid; for mass density: Vibrating tube method

NCC(=O)O [2-aminoacetic acid] + O
speed of sound [m/s], Sing-around technique in a fixed-path interferometer
Conditions	288.15 K	298.15 K	308.15 K	318.15 K
m1 = 0.05362	1468.9	1499.5	1522.5	1539
m1 = 0.1083	–	–	1525.3	–
m1 = 0.1287	1473.1	1503.4	–	1542.7
m1 = 0.1664	–	–	1528.2	–
m1 = 0.191	1476.6	1506.8	–	1545.7
m1 = 0.2522	1480.1	1510	–	1548.7
m1 = 0.263	–	–	1533.1	–
m1 = 0.3423	1485.3	1514.9	–	1553.1
m1 = 0.3737	–	–	1538.8	–
m1 = 0.4967	–	–	1545.2	–
m1 = 0.5062	1494.9	1523.9	–	1561.3
m1 = 0.562	1498.1	1526.9	–	1564.1

Conditions	viscosity [mPa·s]
288.15 K, m1 = 0.06844	1.149
288.15 K, m1 = 0.1393	1.159
288.15 K, m1 = 0.2552	1.176
288.15 K, m1 = 0.3468	1.19
288.15 K, m1 = 0.4241	1.202
288.15 K, m1 = 0.5002	1.213
298.15 K, m1 = 0.06025	0.8979
298.15 K, m1 = 0.1223	0.9055
298.15 K, m1 = 0.1933	0.9138
298.15 K, m1 = 0.2798	0.9248
298.15 K, m1 = 0.4145	0.942
298.15 K, m1 = 0.4859	0.9507
308.15 K, m1 = 0.06295	0.7261
308.15 K, m1 = 0.1248	0.7325
308.15 K, m1 = 0.2476	0.7455
308.15 K, m1 = 0.3345	0.7536
308.15 K, m1 = 0.4195	0.7624
308.15 K, m1 = 0.4709	0.7672
318.15 K, m1 = 0.06088	0.6017
318.15 K, m1 = 0.1248	0.6064
318.15 K, m1 = 0.2476	0.6176
318.15 K, m1 = 0.3345	0.6253
318.15 K, m1 = 0.4195	0.6329
318.15 K, m1 = 0.4709	0.6356

CCC(N)C(=O)O (stereo not drawn) [(.+-.)-α-aminobutyric acid] + O
speed of sound [m/s], Sing-around technique in a fixed-path interferometer
Conditions	m1 = 0.05062	m1 = 0.1107	m1 = 0.2175	m1 = 0.2738	m1 = 0.3587	m1 = 0.4523
288.15 K	1469.9	1474.7	1483.4	1488	1494.9	1502.7
298.15 K	–	1505.2	1513.6	1518	1524.7	1532.1
308.15 K	1523.4	1527.7	1535.4	1539.4	1545.5	1552.3
318.15 K	1539.9	1544	1551.2	1555.1	1560.9	1567.3

Conditions	viscosity [mPa·s]
288.15 K, m1 = 0.05106	1.159
288.15 K, m1 = 0.09089	1.181
288.15 K, m1 = 0.1764	1.22
288.15 K, m1 = 0.2253	1.242
288.15 K, m1 = 0.2685	1.262
288.15 K, m1 = 0.4044	1.324
298.15 K, m1 = 0.03245	0.8996
298.15 K, m1 = 0.05413	0.9064
298.15 K, m1 = 0.07577	0.9126
298.15 K, m1 = 0.108	0.9222
298.15 K, m1 = 0.1433	0.9326
298.15 K, m1 = 0.1888	0.9459
298.15 K, m1 = 0.2162	0.9534
308.15 K, m1 = 0.04831	0.731
308.15 K, m1 = 0.08861	0.7438
308.15 K, m1 = 0.1735	0.7667
308.15 K, m1 = 0.2198	0.7794
308.15 K, m1 = 0.2655	0.7915
308.15 K, m1 = 0.3962	0.8261
318.15 K, m1 = 0.04911	0.6052
318.15 K, m1 = 0.08886	0.6122
318.15 K, m1 = 0.1735	0.6267
318.15 K, m1 = 0.2196	0.6354
318.15 K, m1 = 0.2658	0.6432
318.15 K, m1 = 0.3964	0.6658

CC(N)C(=O)O (stereo not drawn) [DL-2-aminopropanoic acid] + O
speed of sound [m/s], Sing-around technique in a fixed-path interferometer
Conditions	m1 = 0.07777	m1 = 0.1126	m1 = 0.2059	m1 = 0.3139	m1 = 0.3825	m1 = 0.4409
288.15 K	1471.3	1473.8	1480.4	1488.1	1493	1497.2
298.15 K	1501.8	1504.1	1510.4	1517.7	1522.3	1526.3
308.15 K	1524.6	1526.7	1532.4	1539.1	1543.4	1547
318.15 K	1540.9	1542.8	1548.2	1554.4	1558.4	1561.8

Conditions	viscosity [mPa·s]
288.15 K, m1 = 0.04982	1.153
288.15 K, m1 = 0.1109	1.172
288.15 K, m1 = 0.2183	1.204
288.15 K, m1 = 0.2612	1.217
288.15 K, m1 = 0.3107	1.231
288.15 K, m1 = 0.4536	1.272
288.15 K, m1 = 0.5099	1.29
298.15 K, m1 = 0.07866	0.9082
298.15 K, m1 = 0.1934	0.9331
298.15 K, m1 = 0.3188	0.9584
298.15 K, m1 = 0.4275	0.9832
298.15 K, m1 = 0.5485	1.013
298.15 K, m1 = 0.593	1.018
298.15 K, m1 = 0.7354	1.057
298.15 K, m1 = 0.8417	1.072
298.15 K, m1 = 0.9533	1.089
308.15 K, m1 = 0.04619	0.7279
308.15 K, m1 = 0.107	0.7391
308.15 K, m1 = 0.2145	0.7583
308.15 K, m1 = 0.2578	0.7656
308.15 K, m1 = 0.3071	0.7745
308.15 K, m1 = 0.3489	0.7816
308.15 K, m1 = 0.4983	0.8076
318.15 K, m1 = 0.04529	0.6029
318.15 K, m1 = 0.1064	0.6119
318.15 K, m1 = 0.2141	0.6275
318.15 K, m1 = 0.2564	0.6331
318.15 K, m1 = 0.3064	0.6409
318.15 K, m1 = 0.3492	0.647
318.15 K, m1 = 0.4205	0.6561

CC(C)C[C@H](N)C(=O)O [L-leucine] + O
speed of sound [m/s], Sing-around technique in a fixed-path interferometer
Conditions	m1 = 0.01941	m1 = 0.02155	m1 = 0.0281	m1 = 0.03296	m1 = 0.04083	m1 = 0.05231	m1 = 0.06632	m1 = 0.07033
288.15 K	–	1468.6	1469.5	1470.1	1471.1	–	1474.4	1475
298.15 K	1498.8	–	1499.9	1500.5	–	1502.7	1504.4	–
308.15 K	–	–	–	1523.2	1524.1	1525.2	1526.7	1527.1
318.15 K	–	–	1539.1	1539.5	1540.2	1541.3	1542.6	1543

Conditions	viscosity [mPa·s]
288.15 K, m1 = 0.01977	1.151
288.15 K, m1 = 0.02401	1.153
288.15 K, m1 = 0.03189	1.158
288.15 K, m1 = 0.04067	1.163
288.15 K, m1 = 0.04511	1.166
288.15 K, m1 = 0.0503	1.169
298.15 K, m1 = 0.02228	0.9009
298.15 K, m1 = 0.03694	0.9076
298.15 K, m1 = 0.04045	0.9094
298.15 K, m1 = 0.05353	0.9156
298.15 K, m1 = 0.06724	0.9222
298.15 K, m1 = 0.08113	0.928
308.15 K, m1 = 0.0193	0.7262
308.15 K, m1 = 0.02231	0.7271
308.15 K, m1 = 0.03116	0.7301
308.15 K, m1 = 0.03988	0.7332
308.15 K, m1 = 0.04441	0.7347
308.15 K, m1 = 0.05005	0.7366
318.15 K, m1 = 0.01898	0.6012
318.15 K, m1 = 0.02214	0.602
318.15 K, m1 = 0.03098	0.6043
318.15 K, m1 = 0.03968	0.6064
318.15 K, m1 = 0.04439	0.6076
318.15 K, m1 = 0.04995	0.6092

CC(C)[C@H](N)C(=O)O [L-valine] + O
speed of sound [m/s], Sing-around technique in a fixed-path interferometer
Conditions	m1 = 0.0197	m1 = 0.03559	m1 = 0.04365	m1 = 0.05244	m1 = 0.0586	m1 = 0.07142	m1 = 0.08303
288.15 K	–	1469.6	1470.5	1471.4	1472	1473.4	1474.6
298.15 K	–	1500.1	1500.9	1501.7	1502.3	1503.6	1504.7
308.15 K	–	1523	1523.8	1524.6	1525.1	1526.3	1527.3
318.15 K	1538.1	–	1540	1540.7	1541.2	1542.3	1543.2

Conditions	viscosity [mPa·s]
288.15 K, m1 = 0.02209	1.15
288.15 K, m1 = 0.03342	1.157
288.15 K, m1 = 0.04176	1.161
288.15 K, m1 = 0.04553	1.163
288.15 K, m1 = 0.0505	1.166
288.15 K, m1 = 0.05576	1.169
298.15 K, m1 = 0.02235	0.8987
298.15 K, m1 = 0.03324	0.9027
298.15 K, m1 = 0.04271	0.9064
298.15 K, m1 = 0.04775	0.9082
298.15 K, m1 = 0.05319	0.9101
298.15 K, m1 = 0.05741	0.9118
308.15 K, m1 = 0.02114	0.7258
308.15 K, m1 = 0.03147	0.7288
308.15 K, m1 = 0.04157	0.7319
308.15 K, m1 = 0.04549	0.7331
308.15 K, m1 = 0.04791	0.7337
308.15 K, m1 = 0.05464	0.7358
318.15 K, m1 = 0.02149	0.6014
318.15 K, m1 = 0.03166	0.6038
318.15 K, m1 = 0.04179	0.6061
318.15 K, m1 = 0.04524	0.6068
318.15 K, m1 = 0.0474	0.6073
318.15 K, m1 = 0.05407	0.609

[Cl][Cd][Cl] [cadmium chloride] + O
Conditions	mass density [kg/m3]	speed of sound [m/s]	viscosity [mPa·s]
288.15 K, m1 = 0.1	1015.69	1479	1.144
288.15 K, m1 = 0.5	1077.05	1484	1.223
288.15 K, m1 = 1	1149.37	1492.8	1.334
288.15 K, m1 = 1.5	1205.71	1496.2	1.472
298.15 K, m1 = 0.1	1012.89	1501.6	0.926
298.15 K, m1 = 0.5	1072.65	1507.2	1.036
298.15 K, m1 = 1	1140.72	1511.4	1.16
298.15 K, m1 = 1.5	1199.85	1514.4	1.226
308.15 K, m1 = 0.1	1009.59	1522.4	0.7258
308.15 K, m1 = 0.5	1068.5	1525.2	0.8259
308.15 K, m1 = 1	1135.37	1527.4	0.9138
308.15 K, m1 = 1.5	1193.02	1530.2	0.9824
318.15 K, m1 = 0.1	1005.51	1538.6	0.6097
318.15 K, m1 = 0.5	1063.8	1541.8	0.6739
318.15 K, m1 = 1	1129.17	1543.2	0.7467
318.15 K, m1 = 1.5	1186	1546.2	0.8197

O [water] + [Cl][Cd][Cl]
m2 = 0
Conditions	viscosity [mPa·s]
288.15 K	1.138
298.15 K	0.8903
308.15 K	0.7195
318.15 K	0.5963
